How the values were obtained:
[1] = target: T1, Galectin-1 (Homo sapiens, UniProt P09382); experiment: Binding affinity to galectin-1 (unknown origin) by fluorescence polarization assay
[2] = species on record: Homo sapiens; experiment: Selectivity ratio of Kd for galectin-1 (unknown origin) to Kd for galectin-3 (unknown origin)
[3] = target: T2, Galectin-3 (Homo sapiens, UniProt P17931); experiment: Binding affinity to galectin-3 (unknown origin) by fluorescence polarization assay
[4] = target: T2, Galectin-3; experiment: Ratio of Thiodigalactoside Kd to compound Kd for galectin-3 (unknown origin)
[5] = target: T1, Galectin-1; experiment: Ratio of Thiodigalactoside Kd to compound Kd for galectin-1 (unknown origin)
[6] = target: T2, Galectin-3; experiment: Binding affinity to galectin-3 (unknown origin)
[7] = target: T2, Galectin-3; experiment: Ratio of LacNAc-beta-OMe Kd to compound Kd for galectin-3 (unknown origin)
[8] = target: T1, Galectin-1; experiment: Ratio of LacNAc-beta-OMe Kd to compound Kd for galectin-1 (unknown origin)

T1 sequence (P09382 whole entry): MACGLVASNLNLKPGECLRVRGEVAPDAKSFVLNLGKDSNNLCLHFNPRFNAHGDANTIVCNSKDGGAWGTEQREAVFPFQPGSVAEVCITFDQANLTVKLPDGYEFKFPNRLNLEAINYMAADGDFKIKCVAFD
T2 sequence (P17931 whole entry): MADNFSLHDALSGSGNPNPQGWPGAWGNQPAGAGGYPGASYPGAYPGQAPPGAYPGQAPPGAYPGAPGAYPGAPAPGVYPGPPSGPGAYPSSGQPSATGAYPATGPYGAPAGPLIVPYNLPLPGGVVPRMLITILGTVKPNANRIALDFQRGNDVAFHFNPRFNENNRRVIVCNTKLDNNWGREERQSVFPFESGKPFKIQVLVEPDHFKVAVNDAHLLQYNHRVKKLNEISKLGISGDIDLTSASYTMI

Kd [1] | Selectivity ratio [2] | Kd [3] | Ratio [4] | Ratio [5] | Activity [6] | Ratio [7] | Ratio [8] | Structure (SMILES)
0.049 µM | 1 | 0.044 µM | 980 | 490 |  |  |  | OC[C@H]1O[C@@H](S[C@@H]2O[C@H](CO)[C@H](O)[C@H](n3cc(-c4ccccc4)nn3)[C@H]2O)[C@H](O)[C@@H](n2cc(-c3ccccc3)nn2)[C@H]1O
 |  |  |  |  | 43 µM |  |  | OC[C@H]1O[C@@H](S[C@@H]2O[C@H](CO)[C@H](O)[C@H](O)[C@H]2O)[C@H](O)[C@@H](O)[C@H]1O
28 µM | 13 | 2.2 µM |  |  |  | 31 | 2.5 | [N-]=[N+]=NCCCO[C@@H]1O[C@H](CO)[C@@H](O[C@@H]2O[C@H](CO)[C@H](O)[C@H](n3cc(-c4ccc(Oc5ccccc5)cc4)nn3)[C@H]2O)[C@H](O)[C@H]1N1C(=O)c2ccccc2C1=O
6.7 µM | 2.4 | 2.8 µM |  |  |  | 25 | 10 | [N-]=[N+]=NCCCO[C@@H]1O[C@H](CO)[C@@H](O[C@@H]2O[C@H](CO)[C@H](O)[C@H](n3cc(-c4ccc(Oc5ccccc5)cc4)nn3)[C@H]2O)[C@H](O)[C@H]1NC(=O)c1ccccc1
280 µM | 230 | 1.2 µM |  |  |  | 58 | 0.3 | [N-]=[N+]=NCCCO[C@@H]1O[C@H](CO)[C@@H](O[C@@H]2O[C@H](CO)[C@H](O)[C@H](OCc3ccc(Oc4ccccc4)cc3)[C@H]2O)[C@H](O)[C@H]1N1C(=O)c2ccccc2C1=O
 | 1 | 69 µM |  |  |  |  |  | CO[C@@H]1O[C@H](CO)[C@@H](O[C@@H]2O[C@H](CO)[C@H](O)[C@H](O)[C@H]2O)[C@H](O)[C@H]1NC(C)=O
180 µM | 22 | 8.1 µM |  |  |  | 8.5 | 0.4 | [N-]=[N+]=NCCCO[C@@H]1O[C@H](CO)[C@@H](O[C@@H]2O[C@H](CO)[C@H](O)[C@H](OCc3ccc(Oc4ccccc4)cc3)[C@H]2O)[C@H](O)[C@H]1NC(=O)c1ccccc1
0.013 µM | 0.6 | 0.022 µM | 1950 | 1850 |  |  |  | OC[C@H]1O[C@@H](S[C@@H]2O[C@H](CO)[C@H](O)[C@H](n3cc(-c4cccc(O)c4)nn3)[C@H]2O)[C@H](O)[C@@H](n2cc(-c3cccc(O)c3)nn2)[C@H]1O
84 µM | 230 | 0.36 µM | 120 | 0.3 |  |  |  | OC[C@H]1O[C@@H](S[C@@H]2O[C@H](CO)[C@H](O)[C@H](n3cc(-c4ccc(Oc5ccccc5)cc4)nn3)[C@H]2O)[C@H](O)[C@@H](n2cc(-c3ccc(Oc4ccccc4)cc3)nn2)[C@H]1O
